Patent publication US20220132862A1, “PSEUDOMONAS SP. STRAIN, COMPOSITION COMPRISING THE SAME, AND USES THEREOF” (FUTURECO BIOSCIENCE, S.A., priority 2019, published 2022)

Each molecule was assayed on B2021 (assay: Antibiotic resistance, MIC by broth microdilution (BMD)). Conditions: lowest antibiotic concentration that inhibited 80% of growth; LB, 18 h, 28° C.
Format: cell-based, Pseudomonas sp.
Method: Minimum inhibitory concentrations (MICs) for tested antibiotics were determined by the broth microdilution (BMD) method. Four antibiotics were used: Streptomycin Sulfate, Nalidixic Acid, Oxytetracycline and Erythromycine. Briefly. MICs were determined in sterile 96-well plates by two-fold serial dilutions in 100 μL of LB. […] The MIC was defined as the lowest antibiotic concentration that inhibited 80% of growth (based on OD measurements) in comparison to the control. Moreover, cell viability was confirmed by addition of 30 μL of 0.01% resazurin. Any color changes from blue-purple to pink were recorded as positive and the MIC was defined as the lowest antibiotic concentration lacking this color change.
With `CC[C@H]1OC(=O)[C@H](C)[C@@H](O[C@H]2C[C@@](C)(OC)[C@@H](O)[C@H](C)O2)[C@H](C)[C@@H](O[C@@H]2O[C@H](C)C[C@H](N(C)C)[C@H]2O)[C@](C)(O)C[C@@H](C)C(=O)[C@H](C)[C@@H](O)[C@]1(C)O` [Erythromycine] the “Antibiotic resistance (MIC)” value was 240 µg/mL.
`CN(C)[C@@H]1C(O)=C(C(N)=O)C(=O)[C@@]2(O)C(O)=C3C(=O)c4c(O)cccc4[C@@](C)(O)[C@H]3[C@H](O)[C@@H]12` [Oxytetracycline] was tested, and the “Antibiotic resistance (MIC)” value was 3.13 µg/mL.
`CCn1cc(C(=O)O)c(=O)c2ccc(C)nc21` [Nalidixic Acid] was tested, and the “Antibiotic resistance (MIC)” value was 240 µg/mL.
Streptomycine Sulfate was tested, and the “Antibiotic resistance (MIC)” value was 1600 µg/mL.
